From patent US11701369B2, “Polymeric bile acid derivatives inhibit Hepatitis B and D virus and NTCP transport” (Huahui Health Ltd., priority 2014, dated 2023)
Entries after “also recorded” stand apart in the source; their conditions may differ.

What was measured:
HBV [1] = test: HBV infection assay on HepaRG cells (HBsAg and HBeAg ELISA); assay type: cell-based, Hepatitis B virus; details: HBsAg and HBeAg at 5 dpi
Experimental: FIG. 11 HepaRG cells were infected with HBV in the presence of indicated PBADs. The level of secreted HBsAg and HBeAg was detected by ELISA at 5 dpi.
The antiviral potency of PBADs is also repeatable on other HBV infection system (HepaRG) with similar inhibition profile. […] HBV infection was conducted in the presence of NQL028, NQL018, NQL029, NQL019 and NQL021, all of which were bis-ester based PBADs with different linkage length.

HBV [2] = test: HBV infection assay on HepG2-NTCP cells (secreted HBeAg by ELISA); assay type: cell-based, Hepatitis B virus; details: HepG2-NTCP cells, secreted HBeAg
Experimental: (§1) HBV and HDV infection assay. HepG2NTCP Cells were cultured in PMM for 12-24 hrs before infection, and then inoculated with 200 multiplicities of genome equivalents (mge) of HBV, or 500 mge of HDV in the presence of 5% PEG8000 in PMM at 37° C. for about 24 hrs. Chemicals to be tested were added to the cells as indicated in the specific assays. The inoculum was replenished by PMM post infection. The infections were detected at day 5 post infection (dpi).
ELISA assay for the detection of HBeAg and HBsAg. ELISA kits for HBeAg and HBsAg detection were from Wantai Pharm Inc. (Beijing, China). Supernatant from infected HepG2NTCP cells was collected on 2-5 days post infection. The secreted HBeAg and HBsAg in the culture medium was measured with a commercial kit from Wantai Pharm Inc (Beijing, China) by following the manufactory's instructions.

HDV = HDV infection assay on HepG2-NTCP cells (intracellular delta antigen staining); assay type: cell-based, Hepatitis D virus
Experimental: as §1
Immunostaining assay. For HBV infection, infected cells were washed twice with PBS and fixed in 3.7% paraformaldehyde (PFA) at room temperature for 10 mins. Subsequently, cells were permeabilized with 0.5% Trition X-100/PBS for 10 mins at room temperature, blocked with 3% BSA at 37° C. for 1 hour, and followed by incubating with 5 μg/ml mouse mAb1C10 which recognizes HBcAg, and followed by staining with FITC-conjugated secondary antibody. Nucleus was stained with DAPI in blue. The stained cells were imaged with the fluorescence microscope (Nikon). For HDV infection, on 5 dpi, HDV infected cells were fixed with 100% methanol at room temperature for 10 mins, intracellular delta antigens were then stained with 5 μg/ml of FITC conjugated 4G5 and nucleus were stained with DAPI in blue. Images were collected by an Eclipse Ti Fluorescence Microscope (Nikon) and a representative picture is shown.

NTCP = biological target: T1, NTCP (Homo sapiens, UniProt Q14973); test: [3H] taurocholate uptake assay on HepG2-NTCP cells; assay type: cell-based; details: co-incubation assay, [3H] taurocholate, 10 min
T1 construct: expressed in transfected cells
T1 sequence (Q14973 1-349): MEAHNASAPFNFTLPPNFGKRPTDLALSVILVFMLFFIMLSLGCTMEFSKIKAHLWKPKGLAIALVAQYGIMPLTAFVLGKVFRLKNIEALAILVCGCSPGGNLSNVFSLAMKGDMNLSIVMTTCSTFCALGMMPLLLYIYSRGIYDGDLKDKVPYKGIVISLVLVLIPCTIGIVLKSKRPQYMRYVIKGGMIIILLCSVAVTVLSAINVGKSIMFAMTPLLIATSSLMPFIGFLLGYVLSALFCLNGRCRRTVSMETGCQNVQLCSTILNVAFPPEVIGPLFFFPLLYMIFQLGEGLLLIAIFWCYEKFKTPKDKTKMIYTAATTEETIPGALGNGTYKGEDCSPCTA
Experimental: [3H] substrate uptake assay. [3H]taurocholate uptake assay was conducted following a protocol as previously described(60). In general, HepG2-NTCP cells were cultured in PMM for 12-24 hrs, then were treated with or without indicated chemicals before uptake assay. For substrate uptake assay, cells were generally incubated with 0.5 μl (0.5 μCi) [3H]-taurocholate dissolved in Na+ Ringer's solutions for 10 mins at 37° C. with or without the presence of chemicals. Subsequently, cells were washed once by PBS and lysed by 100 μl of 1% TritonX-100 in H2O for 5 mins at room temperature. The lysate was transferred into liquid scintillation tube and mixed with 900 μl liquid scintillation cocktail (Ultima GOLD™ XR) (Perkin Elmer, USA). Liquid scintillation counting was performed on a Perkin Elmer 1450 LSC Liquid Scintillation Counter and Luminescence Counter.

HBV [3] = test: In vitro stability: incubation with HBV inocula before infection, HBeAg ELISA; assay type: cell-based, Hepatitis B virus; details: incubated with HBV inocula for different times before infection, HBeAg at 5 dpi
Experimental: FIG. 10 The influence of the linkage groups on the in vitro stability of PBADs. TUDCA, NQL018, NQL044, and NQL055 were incubated with HBV inocula of different times before viral infection, and present in the inocula during infection period. The level of secreted HBeAg was detected by ELISA at 5 dpi.
The in vitro stability of PBADs could PBADs could be enhanced by optimization of the linkage bond. We conducted stability analysis of several PBADs with similar structure but of different linkage. […] This indicates the in vitro and in vivo stability is to a large extent determined by the feature of the linkage groups.

| Compound | inhibition of HBV infection (in words) (HBV [2]) | also measured |
| --- | --- | --- |
| C[C@H](CCC(=O)NCCS(=O)(=O)O)[C@H]1CC[C@H]2[C@@H]3[C@@H](O)CC4C[C@H](OC(=O)CCCCCC(=O)O[C@@H]5CC[C@@]6(C)C(C5)C[C@H](O)[C@H]5[C@@H]7CC[C@H]([C@H](C)CCC(=O)NCCS(=O)(=O)O)[C@@]7(C)CC[C@@H]56)CC[C@]4(C)[C@H]3CC[C@]12C (stereo in doubt) [NQL-019] | – | inhibition of HBV infection on HepaRG cells (in words) (HBV [1]): inhibited HBV infection |
| C[C@H](CCC(=O)NCCS(=O)(=O)O)[C@H]1CC[C@H]2[C@@H]3[C@@H](O)CC4C[C@H](OC(=O)CCC(=O)O[C@@H]5CC[C@@]6(C)C(C5)C[C@H](O)[C@H]5[C@@H]7CC[C@H]([C@H](C)CCC(=O)NCCS(=O)(=O)O)[C@@]7(C)CC[C@@H]56)CC[C@]4(C)[C@H]3CC[C@]12C (stereo in doubt) [NQL-028] | – | inhibition of HBV infection on HepaRG cells (in words) (HBV [1]): inhibited HBV infection |
| C[C@H](CCC(=O)NCCS(=O)(=O)O)[C@H]1CC[C@H]2[C@@H]3[C@@H](O)CC4C[C@H](OC(=O)CCCCC(=O)O[C@@H]5CC[C@@]6(C)C(C5)C[C@H](O)[C@H]5[C@@H]7CC[C@H]([C@H](C)CCC(=O)NCCS(=O)(=O)O)[C@@]7(C)CC[C@@H]56)CC[C@]4(C)[C@H]3CC[C@]12C (stereo in doubt) [NQL-029] | – | inhibition of HBV infection on HepaRG cells (in words) (HBV [1]): inhibited HBV infection |
| C[C@H](CCC(=O)NCCS(=O)(=O)O)[C@H]1CC[C@H]2[C@@H]3[C@@H](O)CC4CC5(CC[C@]4(C)[C@H]3CC[C@]12C)N=N5 (stereo partly shown) [3-Diz-TUDCA] | did not show significantly improved inhibitory efficiency over the natural monomeric TUDCA | – |
| CC(=O)O[C@@H]1CC[C@@]2(C)C(C1)C[C@H](O)[C@H]1[C@@H]3CC[C@H]([C@H](C)CCC(=O)NCCS(=O)(=O)O)[C@@]3(C)CC[C@@H]12 (stereo partly shown) [3-OAc-TUDCA] | did not show significantly improved inhibitory efficiency over the natural monomeric TUDCA | – |
| C[C@H](CCC(=O)NCCS(=O)(=O)O)[C@H]1CC[C@H]2[C@H]3[C@H](CC[C@]12C)[C@@]1(C)CC[C@@H](O)CC1CC31N=N1 (stereo partly shown) [7-Diz-TUDCA] | did not show significantly improved inhibitory efficiency over the natural monomeric TUDCA | – |
| C[C@H](CCC(=O)OCCCCC[C@@H]1SC[C@@H]2NC(=O)N[C@@H]21)[C@H]1CC[C@H]2C3[C@@H](O)CC4C[C@H](O)CC[C@]4(C)[C@H]3CC[C@]12C (stereo partly shown) [Biotin-UDCA] | did not show significantly improved inhibitory efficiency over the natural monomeric TUDCA | – |
| CCN(CCCN(C)C)C(=O)OC(=O)CC[C@@H](C)[C@H]1CC[C@H]2[C@@H]3[C@@H](O)CC4C[C@H](O)CC[C@]4(C)[C@H]3CC[C@]12C (stereo partly shown) [CA-UDCA, Carbamic-UDCA] | did not show significantly improved inhibitory efficiency over the natural monomeric TUDCA | – |
| C[C@H](CCC(=O)NCCCC1(C)N=N1)[C@H]1CC[C@H]2[C@@H]3[C@@H](O)CC4C[C@H](O)CC[C@]4(C)[C@H]3CC[C@]12C (stereo partly shown) [Diz-UDCA, Diz-Ursodeoxycholic acid] | did not show significantly improved inhibitory efficiency over the natural monomeric TUDCA | – |
| C[C@H](CCC(=O)NCCS(=O)(=O)O)[C@H]1CC[C@H]2[C@@H]3[C@@H](O)CC4C[C@@H](O)CC[C@]4(C)[C@H]3CC[C@]12C (stereo partly shown) [Iso-TUDCA, Iso-tauroursodeoxycholic acid] | did not show significantly improved inhibitory efficiency over the natural monomeric TUDCA | – |
| C[C@H](CCC(=O)NCCS(=O)(=O)O)[C@H]1CC[C@@H]2C3[C@@H](OC(=O)CC[C@@H](C)[C@H]4CC[C@@H]5C6[C@@H](CC[C@@]54C)[C@@]4(C)CC[C@H](O)CC4C[C@@H]6O)CC4C[C@@H](O)CC[C@]4(C)[C@@H]3CC[C@@]21C (stereo partly shown) [NQL-015] | high antiviral activity; also recorded: greatly improved potency | inhibition of HDV infection (in words) (HDV): high antiviral activity; also recorded: greatly improved potency; inhibition of NTCP substrate uptake (in words) (NTCP): significantly higher efficiency than that of TUDCA |
| C[C@H](CCC(=O)NCCS(=O)(=O)O)[C@H]1CC[C@H]2[C@@H]3[C@@H](O)CC4CC(NC(=O)CCCC(=O)NC5CC[C@@]6(C)C(C5)C[C@H](O)[C@H]5[C@@H]7CC[C@H]([C@H](C)CCC(=O)NCCS(=O)(=O)O)[C@@]7(C)CC[C@@H]56)CC[C@]4(C)[C@H]3CC[C@]12C (stereo partly shown) [NQL-021] | – | inhibition of HBV infection on HepaRG cells (in words) (HBV [1]): inhibited HBV infection |
| C[C@H](CCC(=O)NCCS(=O)(=O)O)[C@H]1CC[C@H]2[C@@H]3[C@@H](O)CC4C[C@H](NC(=O)CCCC(=O)N[C@@H]5CC[C@@]6(C)C(C5)C[C@H](O)[C@H]5[C@@H]7CC[C@H]([C@H](C)CCC(=O)NCCS(=O)(=O)O)[C@@]7(C)CC[C@@H]56)CC[C@]4(C)[C@H]3CC[C@]12C (stereo partly shown) [NQL-044] | high antiviral activity | inhibition of HDV infection (in words) (HDV): high antiviral activity; in vitro stability (antiviral potency after long incubation with the inoculum) (HBV [3]): much more stable as no significant potency decrease was observed |
| C[C@H](CCC(=O)NCCS(=O)(=O)O)[C@H]1CC[C@H]2[C@@H]3[C@@H](O)CC4C[C@H](OCc5cn([C@@H]6CC[C@@]7(C)C(C6)C[C@H](O)[C@H]6[C@@H]8CC[C@H]([C@H](C)CCC(=O)NCCS(=O)(=O)O)[C@@]8(C)CC[C@@H]67)nn5)CC[C@]4(C)[C@H]3CC[C@]12C (stereo partly shown) [NQL-055] | – | in vitro stability (antiviral potency after long incubation with the inoculum) (HBV [3]): much more stable as no significant potency decrease was observed |
| C[C@H](CCC(=O)NCCS(=O)(=O)O)[C@H]1CC[C@H]2[C@@H]3[C@@H](O)CC4C[C@H](O)CC[C@]4(C)[C@H]3CC[C@]12C (stereo partly shown) [TUDCA, Tauroursodeoxycholic acid, reference compound] | most potent one among all bile acid derivatives tested | – |
